Measured values from ChEMBL document CHEMBL1132596, “Non-peptide corticotropin-releasing hormone antagonists: syntheses and structure-activity relationships of 2-anilinopyrimidines and -triazines” (J Med Chem, 1999).
“And” between values parts separate entries of the source, which are not always exact repeats. Identical values can stand only once.

What was measured:
[1] = molecular target: T1, Corticotropin-releasing factor receptor 1 (Homo sapiens, UniProt P34998); experiment: Binding affinity for human recombinant corticotropin releasing factor receptor 1
T1 sequence (P34998 whole entry): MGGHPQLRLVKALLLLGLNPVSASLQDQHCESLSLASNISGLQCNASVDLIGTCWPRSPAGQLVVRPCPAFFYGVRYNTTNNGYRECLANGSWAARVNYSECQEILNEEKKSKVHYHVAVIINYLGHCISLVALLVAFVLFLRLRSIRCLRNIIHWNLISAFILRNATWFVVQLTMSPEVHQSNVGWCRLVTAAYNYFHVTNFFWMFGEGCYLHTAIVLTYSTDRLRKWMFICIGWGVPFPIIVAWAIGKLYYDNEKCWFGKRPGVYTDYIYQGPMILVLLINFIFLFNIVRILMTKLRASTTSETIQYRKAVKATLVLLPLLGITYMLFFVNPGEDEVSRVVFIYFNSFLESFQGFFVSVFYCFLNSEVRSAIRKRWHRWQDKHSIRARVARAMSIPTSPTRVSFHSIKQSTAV

[2] = molecular target: T2, Corticotropin-releasing factor receptor 1 (Rattus norvegicus, UniProt P35353); experiment: Binding affinity was measured on rat Corticotropin releasing factor receptor 1
T2 sequence (P35353 whole entry): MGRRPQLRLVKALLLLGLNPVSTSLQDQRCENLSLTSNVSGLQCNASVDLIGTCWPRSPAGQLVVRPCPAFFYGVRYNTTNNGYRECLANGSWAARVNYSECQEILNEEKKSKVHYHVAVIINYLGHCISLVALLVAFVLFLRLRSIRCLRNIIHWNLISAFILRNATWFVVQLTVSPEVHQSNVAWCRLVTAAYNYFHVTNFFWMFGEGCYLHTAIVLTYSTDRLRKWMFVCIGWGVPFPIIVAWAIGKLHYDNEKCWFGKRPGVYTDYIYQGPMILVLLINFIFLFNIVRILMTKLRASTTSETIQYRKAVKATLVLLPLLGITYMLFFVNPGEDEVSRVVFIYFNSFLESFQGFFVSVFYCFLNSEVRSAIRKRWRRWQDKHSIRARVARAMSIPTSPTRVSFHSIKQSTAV

Ki [1] | Ki [2] [nM] | SMILES
23 nM |  | CCCCN(CC)c1nc(C)nc(N(CC)c2c(C)cc(C)cc2C)n1
27 nM |  | CCN(CC)c1cc(C)nc(N(CC)c2ccc(N(C)C)cc2Br)n1
14 nM |  | CCCCN(CC)c1cc(C)nc(N(CC)c2ccc(I)cc2Br)n1
26 nM |  | CCN(c1nc(C)cc(C)n1)c1c(Br)cc(C(C)C)cc1OC
41 nM |  | CCC(CC)Nc1nc(C)nc(N(CC)c2ccc(C(C)C)cc2Br)n1
26 nM |  | CCN(CC)c1cc(C)nc(N(CC)c2c(Br)cc(C(C)C)cc2SC)n1
20 nM |  | CCN(CC)c1nc(C)nc(N(CC)c2ccc(N(C)C)cc2C(F)(F)F)n1
6 nM |  | CCCCN(CC#N)c1nc(C)nc(N(CC)c2ccc(N(C)C)cc2C(F)(F)F)n1
 | 187 | CCc1ccc(N(C)c2nc(C)cc(C)n2)c(Br)c1
54 nM |  | CCN(c1nc(C)cc(C)n1)c1ccc(N(C)C)cc1C
 | 38 | CCN(c1nc(C)cc(C)n1)c1ccc(C(C)C)cc1I
14 nM |  | CCN(c1nc(C)cc(N(CCOC)Cc2ccccc2)n1)c1ccc(C(C)C)cc1Br
24 nM |  | CCN(CC)c1cc(C)nc(N(CC)c2c(Cl)cc(Br)cc2Cl)n1
5 nM |  | C=CCN(c1nc(C)nc(N(CC)c2ccc(C(C)C)cc2Br)n1)C1CC1
5 nM |  | CCCCN(CC)c1nc(C)nc(N(CC)c2ccc(C(C)C)cc2Br)n1
28 nM |  | CCN(CC)c1cc(C)nc(N(CC)c2c(Br)cc(C(C)=O)cc2OC)n1
> 1000 nM |  | CCCCN(Cc1nn[nH]n1)c1cc(C)nc(N(CC)c2ccc(C(C)C)cc2Br)n1
31 nM |  | CCN(CC)c1cc(C)nc(N(CC)c2c(Br)cc(Br)cc2OC)n1
25 nM |  | CCN(c1nc(C)nc(N(CCOC)CC2CC2)n1)c1c(C)cc(C)cc1C

Ki [1] | Ki [2] [nM] | SMILES
13 nM |  | CCCCN(CCOC)c1nc(C)nc(N(CC)c2c(C)cc(C)cc2C)n1
22 nM and 30 nM |  | CCN(CC)c1cc(C)nc(N(CC)c2ccc(C(C)C)cc2Br)n1
5 nM |  | CCN(c1nc(C)cc(C)n1)c1c(Br)cc(N(C)C)cc1OC
33 nM |  | C=CCNc1nc(C)nc(N(CC)c2ccc(C(C)C)cc2Br)n1
7 nM |  | CCCN(CCC#N)c1nc(C)nc(N(CC)c2ccc(N(C)C)cc2C)n1
10 nM |  | CCN(CC)c1nc(C)nc(N(CC)c2c(Br)cc(OC)cc2OC)n1
24 nM |  | CCN(CC)c1cc(C)nc(N(CC)c2ccc(S(C)(=O)=O)cc2Br)n1
5 nM |  | CCN(CC)c1cc(C)nc(N(CC)c2ccc(C(C)=O)cc2Br)n1
24 nM |  | CCN(CC)c1cc(C)nc(N(CC)c2ccc(SC)cc2Br)n1
 | 3650 | Cc1cc(C)nc(N(C)c2ccccc2I)n1
2 nM |  | CCC(CC)c1cc(C)nc(N(CC)c2ccc(C(C)C)cc2Br)n1
5 nM |  | CCCN(CC1CC1)c1nc(C)nc(N(CC)c2ccc(N(C)C)cc2C(F)(F)F)n1
11 nM |  | CCCN(CCOC)c1cc(C)nc(N(CC)c2ccc(C(C)C)cc2Br)n1
4 nM |  | C=CCN(CC=C)c1nc(C)nc(N(CC)c2ccc(OC(F)(F)F)cc2Br)n1
31 nM |  | CCN(CCOC)c1nc(C)nc(N(CC)c2c(C)cc(C)cc2C)n1
22 nM |  | CCN(CCOC)c1cc(C)nc(N(CC)c2ccc(C(C)C)cc2Br)n1
44 nM |  | CCC(CC)CNc1cc(C)nc(N(CC)c2ccc(C(C)C)cc2Br)n1
17 nM |  | CCN(CC)c1nc(C)nc(N(CC)c2ccc(C(C)=O)cc2Br)n1

SMILES | Ki [1] | Ki [2] [nM]
CCN(c1ccc(C(C)C)cc1)c1nc(C)cc(C)n1 | > 1000 nM | 
